Experimental data from ChEMBL document CHEMBL6134778, “Spiro-Azetidine Oxindoles as Long-Acting Injectables for Pre-Exposure Prophylaxis against Respiratory Syncytial Virus Infections” (J Med Chem, 2024).
pEC50: −log10 of the molar value. ≈ marks a conversion by molar mass, not a printed value.

What was measured:
[1] = Volume of distribution at steady state in Sprague-Dawley rat at 1 mg/kg, iv by LC-MS/MS analysis; assay type: ADME, organism-based; conditions: in vivo, read-out: Vdss
[2] = test system: Respiratory syncytial virus; test: Antiviral activity against RSV A2 harboring eGFP infected in human HeLa cells assessed as reduction in virus replication by measuring 3X protein-adjusted effective concentration for 90% inhibition measured after 3 days in presence of human serum albumin and alpha(1)-acid glycoprotein by laser microscopy; assay type: functional; conditions: time 3 day
[3] = test system: Respiratory syncytial virus; test: Antiviral activity against RSV A2 harboring eGFP infected in human HeLa cells assessed as reduction in virus replication measured after 3 days by laser microscopy; assay type: functional, organism-based; conditions: 72 h
Canis familiaris [4] = test: Release rate constant in Beagle dog at 20 mg/kg, IM by LC-MS/MS analysis; assay type: ADME, organism-based, Canis lupus familiaris; conditions: in vivo
Canis familiaris [5] = test: Particle size for the 50th percentile of the cumulative volume distribution in Beagle dog at 20 mg/kg, IM […]; assay type: ADME, organism-based, Canis lupus familiaris; conditions: in vivo
HeLa = test: Cytotoxicity against human HeLa cells assessed as reduction in cell viability at highest concentration measured after 3 days by ATPlite assay; assay type: toxicity, cell-based; conditions: 72 h, time 3 day
[6] = Equilibrium solubility of the compound […] at pH 7 measured after 3 days by LC-MS/MS analysis; assay type: physicochemical; conditions: time 3 day
[7] = Intrinsic clearance in human liver microsomes assessed per mg protein at 1 uM measured after 60 mins in presence of NADPH by LC-MS/MS analysis; assay type: ADME, Microsome; conditions: read-out: CLH
[8] = Bioavailability in Sprague-Dawley rat assessed as dose released at 50 mg/kg, IM measured over 12 weeks by LC-MS/MS analysis; assay type: ADME, organism-based; conditions: in vivo
[9] = Bioavailability in Beagle dog assessed as dose released at 20 mg/kg, IM by LC-MS/MS analysis; assay type: ADME, organism-based, Canis lupus familiaris; conditions: in vivo
[10] = Clearance in Beagle dog at 0.25 mg/kg, iv by LC-MS/MS analysis; assay type: ADME, organism-based, Canis lupus familiaris; conditions: in vivo
[11] = Clearance in Sprague-Dawley rat at 1 mg/kg, iv by LC-MS/MS analysis; assay type: ADME, organism-based; conditions: in vivo
[12] = Chromatographic hydrophobicity index, logD of the compound at pH 7.4 by UPLC analysis; assay type: physicochemical; conditions: buffer
[13] = Thermodynamic solubility in aqueous buffer at pH 7 incubated for 24 hrs by UPLC analysis; assay type: physicochemical; conditions: read-out: Therm_solubility
Rattus norvegicus [14] = test: Particle size for the 50th percentile of the cumulative volume distribution in Sprague-Dawley rat at 50 mg/kg, IM […]; assay type: ADME, organism-based; conditions: in vivo
Rattus norvegicus [15] = test: Release rate constant in Sprague-Dawley rat at 50 mg/kg, IM measured over 12 weeks by LC-MS/MS analysis; assay type: ADME, organism-based; conditions: in vivo, 2016 h
[16] = Volume of distribution at steady state in Beagle dog at 0.25 mg/kg, iv by LC-MS/MS analysis; assay type: ADME, organism-based, Canis lupus familiaris; conditions: in vivo, read-out: Vdss
[17] = Intrinsic clearance in human hepatocytes assessed per million cells at 1 uM measured after 180 mins by LC-MS/MS analysis; assay type: ADME, cell-based, Hepatocyte; conditions: read-out: CLH

Row | Compound | Vd [1] | protein-adjusted EC90 [2] | pEC50 [3] | Ka (Canis familiaris [4]) | Particle size (D50) (Canis familiaris [5]) | Activity (HeLa) | solubility at 72 h [6] | microsomal CLint at 1 µM [7] | bioavailability [8] | bioavailability [9] | clearance [10] | clearance [11] | CHI [12] | solubility thermodynamic at 24 h [13] | Median particle size (D50) (Rattus norvegicus [14]) | Ka (Rattus norvegicus [15]) | Vd [16] | hepatocyte CLint at 1 µM [17]
1 | CC(C)C(=O)N1CC2(C1)C(=O)N(Cc1nc3cc(Cl)ccc3n1CCCCF)c1cnccc12 | 5.3 L/kg | 0.017 µg/mL | 9.00 | 0.033 h⁻¹ | 5.43 um | Non-toxic | 361 µM (≈ 175 µg/mL) | < 7.7 µL/min/mg | 142% | 122% | 11.8 mL/min/kg | 26.3 mL/min/kg | 2.14 | 44 µg/mL (≈ 90.9 µM) | 9.11 um | 0.013 h⁻¹ | 0.82 L/kg | < 1.2 µL/min/1e6 cells
2 | CC(C)NC(=O)N1CC2(C1)C(=O)N(Cc1nc3cc(Cl)ccc3n1CCCC(F)(F)F)c1cnccc12 | 1.94 L/kg | 0.0037 µg/mL | 9.64 | 0.01 h⁻¹ | 5.03 um | Non-toxic | 11 µM (≈ 5.88 µg/mL) | < 7.7 µL/min/mg | 107% | 90% | 14.6 mL/min/kg | 36.9 mL/min/kg | 2.39 | < 0.1 µg/mL | 4.36 um | 0.005 h⁻¹ | 1.66 L/kg | < 1.2 µL/min/1e6 cells
3 | CC(C)(O)C(=O)N1CC2(C1)C(=O)N(Cc1nc3cc(Cl)ccc3n1CCCC(F)(F)F)c1ccccc12 | 2.78 L/kg | 0.031 µg/mL | 9.00 | 0.003 h⁻¹ | 1.03 um | Non-toxic | 0.74 µM (≈ 0.396 µg/mL) | < 7.7 µL/min/mg | 85% | 102% | 3.56 mL/min/kg | 9.3 mL/min/kg | 2.84 | < 0.1 µg/mL | 1.02 um | 0.001 h⁻¹ | 1.77 L/kg | < 1.2 µL/min/1e6 cells
